Where “and” joins values, the source holds several entries; their conditions need not be identical. Equal values may be shown once. Read-outs that look alike come from different tables or passages of the source.
Assays:
[1] = system: mutant HIV-1 with I84V/L90M mutations in the protease gene; assay type: cell-based
[2] = system: wild-type HIV-1 strain IIIB; assay: microbe, parasite or virus in culture; assay type: cell-based; details: read-out: EC50
[3] = fold difference in EC50, mutant vs. wild type

Row | Compound | EC50 [2] | further results
1 | COc1ccc(S(=O)(=O)N(Cc2ccccc2)CC(O)C(Cc2ccccc2)NC(=O)OC2COC3OCCC23)cc1 (centres unmarked) |  | I84V/L90M fold change ([1]; I84V/L90M mutant): +++ (>30)
2 | COc1ccc(S(=O)(=O)N(CC(O)C(Cc2ccccc2)NC(=O)OC2COC3OCCC23)CC(C)(C)CO)cc1 (centres unmarked) |  | I84V/L90M fold change ([1]; I84V/L90M mutant): +++ (>30)
3 | COc1ccc(S(=O)(=O)N(CC(C)C)CC(O)C(CNc2ccc(CP(=O)(O)O)cc2)NC(=O)OC2COC3OCCC23)cc1 (centres unmarked) |  | I84V/L90M fold change [1, 3]: + (>3 to ≦10)
4 | COc1ccc(S(=O)(=O)N(CCN2CCOCC2)CC(O)C(Cc2ccc(OCP(=O)(O)O)cc2)NC(=O)OC2COC3OCCC23)cc1 (centres unmarked) |  | I84V/L90M fold change ([1]; I84V/L90M mutant): + (>3 to ≦10)
5 | CCCCOC(=O)C(CC(C)C)NP(=O)(COc1ccc(CC(NC(=O)OC2COC3OCCC23)C(O)CN(CC(C)C)S(=O)(=O)c2ccc(OC)cc2)cc1)NC(CC(C)C)C(=O)OCCCC (centres unmarked) [drawing 655 R1=Leu-Bu R2=Leu-Bu] |  | I84V/L90M fold change [1, 3]: + (>3 to ≦10)
6 | CCOP(=O)(Cc1ccc2c(c1)CCN(CC(NC(=O)OC1COC3OCCC13)C(O)CN(CC(C)C)S(=O)(=O)c1ccc(OC)cc1)C2)OCC (centres unmarked) |  | I84V/L90M fold change [1, 3]: + (>3 to ≦10)
7 | CC(C)CN(CC(O)C(Cc1ccc(OCP(=O)(OCc2ccccc2)OCc2ccccc2)cc1)NC(=O)OC1COC2OCCC12)S(=O)(=O)c1ccc(F)cc1 (centres unmarked) |  | I84V/L90M fold change ([1]; I84V/L90M mutant): + (>3 to ≦10)
8 | CCOP(=O)(Cc1ccc(NCC(NC(=O)OC2COC3OCCC23)C(O)CN(CC(C)C)S(=O)(=O)c2ccc(OC)cc2)cc1)OCC (centres unmarked) |  | I84V/L90M fold change [1, 3]: + (>3 to ≦10)
9 | CC(C)CN(CC(O)C(Cc1ccccc1)NC(=O)OC1COC2OCCC12)S(=O)(=O)c1cccc(OCP(=O)(O)O)c1 (centres unmarked) |  | I84V/L90M fold change ([1]; I84V/L90M mutant): + (>3 to ≦10)
10 | CC(C)CN(CC(O)C(Cc1ccccc1)NC(=O)OC1COC2OCCC12)S(=O)(=O)c1ccc(OCP(=O)(OCc2ccccc2)OCc2ccccc2)cc1 (centres unmarked) |  | I84V/L90M fold change ([1]; I84V/L90M mutant): +++ (>30)
11 | COc1ccc(S(=O)(=O)N(CCN2CCOCC2)CC(O)C(Cc2ccc(OCP(=O)(OCc3ccccc3)OCc3ccccc3)cc2)NC(=O)OC2COC3OCCC23)cc1 (centres unmarked) |  | I84V/L90M fold change ([1]; I84V/L90M mutant): + (>3 to ≦10)
12 | Cc1ccc(C(=O)NC(Cc2ccc(OCP(=O)(O)O)cc2)C(O)CN(CC(C)C)S(=O)(=O)c2ccc(N)cc2)cc1O (centres unmarked) |  | I84V/L90M fold change ([1]; I84V/L90M mutant): + (>3 to ≦10)
13 | COc1ccc(S(=O)(=O)N(CC(C)C)C[C@@H](O)[C@H](Cc2ccc(OCP(=O)(Oc3ccccc3)Oc3ccccc3)cc2)NC(=O)OC2CCOC2)cc1 (some centres unmarked) [OMe, phenol] |  | I84V/L90M fold change ([1]; I84V/L90M mutant): + (>3 to ≦10)
14 | COc1ccc(S(=O)(=O)N(CCN(C)C)CC(O)C(Cc2ccc(OCc3ccccc3)cc2)NC(=O)OC2COC3OCCC23)cc1 (centres unmarked) |  | I84V/L90M fold change ([1]; I84V/L90M mutant): — (≦3)
15 | COc1ccc(S(=O)(=O)N(CC(C)C)CC(O)C(Cc2ccc(OCc3ccccc3)cc2)NC(=O)OC2COC3OCCC23)cc1 (centres unmarked) |  | I84V/L90M fold change ([1]; I84V/L90M mutant): — (≦3)
16 | COc1ccc(S(=O)(=O)N(CC(C)C)CC(O)C(CC2=CCN(CCP(=O)(OCc3ccccc3)OCc3ccccc3)CC2)NC(=O)OC2COC3OCCC23)cc1 (centres unmarked) |  | I84V/L90M fold change [1, 3]: + (>3 to ≦10)
17 | CCOP(=O)(CN1CC=C(CC(NC(=O)OC2COC3OCCC23)C(O)CN(CC(C)C)S(=O)(=O)c2ccc(OC)cc2)CC1)OCC (centres unmarked) |  | I84V/L90M fold change [1, 3]: + (>3 to ≦10)
18 | CCOP(=O)(Cc1ccc(N(C)CC(NC(=O)OC2COC3OCCC23)C(O)CN(CC(C)C)S(=O)(=O)c2ccc(OC)cc2)cc1)OCC (centres unmarked) |  | I84V/L90M fold change [1, 3]: + (>3 to ≦10)
19 | CCOC(=O)[C@H](C)OP(=O)(COc1ccc(C[C@H](NC(=O)O[C@H]2CO[C@H]3OCC[C@H]32)[C@H](O)CN(CC(C)C)S(=O)(=O)c2ccc(OC)cc2)cc1)Oc1cccc(CN(C)CCOC)c1 (stereo partly drawn) [drawing 660 R1=OPh-m-CH2NMeC2OM R2=(S)Lac-Et] | 50 to 500 nM | 
20 | CCC(OP(=O)(COc1ccc(CC(NC(=O)OC2COC3OCCC23)C(O)CN(CC(C)C)S(=O)(=O)c2ccc(OC)cc2)cc1)Oc1ccccc1)C(=O)OC(C)(C)C [drawing 659 R1=OPh R2=(S)Hba-tBu] | < 50 nM | 
21 | CC(C)CN(C[C@@H](O)[C@H](Cc1ccc(OCP(=O)(Oc2ccccc2)Oc2ccccc2)cc1)NC(=O)OC1CCOC1)S(=O)(=O)c1ccc(N)cc1 (some centres unmarked) [NH2, phenol] |  | I84V/L90M fold change ([1]; I84V/L90M mutant): — (≦3)
22 | CC(C)CN(C[C@@H](O)[C@H](Cc1ccc(OCP(=O)(OCc2ccccc2)OC(C)C(=O)OCc2ccccc2)cc1)NC(=O)O[C@H]1CO[C@H]2OCC[C@H]21)S(=O)(=O)c1ccccc1 (some centres unmarked) | 50 to 500 nM | 
23 | CCOC(=O)[C@H](C)OP(=O)(COc1ccc(C[C@H](NC(=O)O[C@H]2CO[C@H]3OCC[C@H]32)[C@@H](CN(CC(C)C)S(=O)(=O)c2ccc(OC)cc2)OC(=O)[C@H](N)C(C)C)cc1)Oc1ccccc1 (some centres unmarked) | 50 to 500 nM | 
24 | CCCCOC(=O)C(C)NP(=O)(O)COc1ccc(C[C@H](NC(=O)O[C@H]2CO[C@H]3OCC[C@H]32)[C@H](O)CN(CC(C)C)S(=O)(=O)c2ccc(OC)cc2)cc1 (some centres unmarked) [drawing 657 R1=OH R2=Ala-Bu] | > 5000 nM | 

Row | Compound | EC50 [2] | further results
25 | CCOC(=O)C(C)OP(=O)(COc1ccc(CC(NC(=O)OC2COC3OCCC23)C(O)CN(CC(C)C)S(=O)(=O)c2ccc(CN3CCOCC3)cc2)cc1)Oc1ccccc1 (centres unmarked) | 50 to 500 nM | 
26 | CCOC(=O)C(Cc1ccccc1)NP(=O)(COc1ccc(CC(NC(=O)OC2COC3OCCC23)C(O)CN(CC(C)C)S(=O)(=O)c2ccc(OC)cc2)cc1)NC(Cc1ccccc1)C(=O)OCC (centres unmarked) [drawing 655 R1=Phe-Et R2=Phe-Et] | < 50 nM | 
27 | CCOC(=O)[C@H](C)OP(=O)(COc1ccc(C[C@H](NC(=O)O[C@H]2CO[C@H]3OCC[C@H]32)[C@H](O)CN(CC(C)C)S(=O)(=O)c2ccc(COC(=O)[C@H](N)C(C)C)cc2)cc1)Oc1ccccc1 (some centres unmarked) | 50 to 500 nM | 
28 | CCOC(=O)C(CC)OP(=O)(COc1ccc(CC(NC(=O)OC2COC3OCCC23)C(O)CN(CC(C)C)S(=O)(=O)c2ccc(OC)cc2)cc1)Oc1ccccc1 [drawing 659 R1=OPh R2=(S)Hba-Et] | < 50 nM | 
29 | CCOC(=O)[C@H](C)OP(=O)(COc1ccc(C[C@H](NC(=O)O[C@H]2CO[C@H]3OCC[C@H]32)[C@H](O)CN(CC(C)C)S(=O)(=O)c2ccc(OC)cc2)cc1)ON(C)C (stereo partly drawn) [drawing 660 R1=ONMe2 R2=(S)Lac-Et] | 50 to 500 nM | 
30 | CCCCOC(=O)CNP(=O)(COc1ccc(C[C@H](NC(=O)O[C@H]2CO[C@H]3OCC[C@H]32)[C@H](O)CN(CC(C)C)S(=O)(=O)c2ccc(OC)cc2)cc1)Oc1ccccc1 (some centres unmarked) [drawing 657 R1=OPh R2=Gly-Ru] | 50 to 500 nM | 
31 | COc1ccc(S(=O)(=O)N(CC(C)C)C[C@@H](O)[C@H](Cc2ccc(OCP(=O)(O)NC(C)C(=O)O)cc2)NC(=O)O[C@H]2CO[C@H]3OCC[C@H]32)cc1 (some centres unmarked) [drawing 657 R1=OH R2=Ala-OH] | > 5000 nM | 
32 | CCCCOC(=O)C(CC)NP(=O)(COc1ccc(CC(NC(=O)OC2COC3OCCC23)C(O)CN(CC(C)C)S(=O)(=O)c2ccc(OC)cc2)cc1)NC(CC)C(=O)OCCCC (centres unmarked) [drawing 655 R1=Aba-Bu R2=Aba-Bu] |  | I84V/L90M fold change [1, 3]: + (>3 to ≦10)
33 | CCOP(=O)(COc1ccc(C[C@H](NC(=O)O[C@H]2CO[C@H]3OCC[C@H]32)[C@H](O)CN(CC(C)C)S(=O)(=O)c2ccc(O)cc2)cc1)OCC [drawing 652 R1=Et R2=Et] | < 50 nM | 
34 | CCOC(=O)C(CC)OP(=O)(COc1ccc(CC(NC(=O)OC2COC3OCCC23)C(O)CN(CC(C)C)S(=O)(=O)c2ccc(OC)cc2)cc1)Oc1ccccc1 [drawing 659 R1=OPh R2=(R)Hba-Et] | < 50 nM | 
35 | CCOC(=O)C(C)OP(=O)(COc1ccc(C[C@H](NC(=O)O[C@H]2CO[C@H]3OCC[C@H]32)[C@H](O)CN(CC(C)C)S(=O)(=O)c2ccc(O)cc2)cc1)Oc1ccccc1 (some centres unmarked) | < 50 nM | 
36 | CCOC(=O)C(CC)NP(=O)(COc1ccc(C[C@H](NC(=O)O[C@H]2CO[C@H]3OCC[C@H]32)[C@H](O)CN(CC(C)C)S(=O)(=O)c2ccc(OC)cc2)cc1)Oc1ccccc1 (single isomer, unassigned) [drawing 657 R1=OPh R2=Aba-Et] | < 50 nM and 50 to 500 nM | 
37 | CCOC(=O)COP(=O)(COc1ccc(CC(NC(=O)OC2COC3OCCC23)C(O)CN(CC(C)C)S(=O)(=O)c2ccc(OC)cc2)cc1)Oc1ccccc1 (centres unmarked) [drawing 658 R1=OPh R2=Glc-Et] | < 50 nM | 
38 | CCOC(=O)[C@H](C)OP(=O)(COc1ccc(C[C@H](NC(=O)O[C@H]2CO[C@H]3OCC[C@H]32)[C@H](O)CN(CC(C)C)S(=O)(=O)c2ccc(OC)cc2)cc1)Oc1cccc(CO)c1 (stereo partly drawn) [drawing 660 R1=OPh-m-CH2OH R2=(S)Lac-Et] | 50 to 500 nM | 
39 | CC(C)CN(C[C@@H](O)[C@H](Cc1ccc(OCP(=O)(OCc2ccccc2)OC(C)C(=O)OCc2ccccc2)cc1)NC(=O)O[C@H]1CO[C@H]2OCC[C@H]21)S(=O)(=O)c1ccc(OCc2ccccc2)cc1 (some centres unmarked) | > 5000 nM | 
40 | CCOC(=O)C(C)OP(=O)(CCNc1ccc(CC(NC(=O)OC2COC3OCCC23)C(O)CN(CC(C)C)S(=O)(=O)c2ccc(OC)cc2)cc1)Oc1ccccc1 (single isomer, unassigned) [drawing 706] | < 50 nM | 
41 | CCOC(=O)C(C)OP(=O)(COc1ccc(CC(NC(=O)OC2COC3OCCC23)C(O)CN(CC(C)C)S(=O)(=O)c2ccc(OC)cc2)cc1)OCC(F)(F)F (centres unmarked) [drawing 658 R1=OCH2CF3 R2=Lac-Et] | 50 to 500 nM | 
42 | CCCCOC(=O)C(Cc1ccccc1)NP(=O)(COc1ccc(CC(NC(=O)OC2COC3OCCC23)C(O)CN(CC(C)C)S(=O)(=O)c2ccc(OC)cc2)cc1)NC(Cc1ccccc1)C(=O)OCCCC (centres unmarked) [drawing 655 R1=Phe-Bu R2=Phe-Bu] | < 50 nM | 
43 | CCOC(=O)C(C)OP(=O)(CN1CC=C(CC(NC(=O)OC2COC3OCCC23)C(O)CN(CC(C)C)S(=O)(=O)c2ccc(OC)cc2)CC1)Oc1ccccc1 (centres unmarked) | > 5000 nM | 
44 | CCOC(=O)C(C)OP(=O)(COc1ccc(CC(NC(=O)OC2COC3OCCC23)C(O)CN(CC(C)C)S(=O)(=O)c2ccc(OC)cc2)cc1)OCC (centres unmarked) [drawing 658 R1=OEt R2=Lac-Et] | 50 to 500 nM | 
45 | COC(=O)C(C)OP(=O)(COc1ccc(C[C@H](NC(=O)O[C@H]2CO[C@H]3OCC[C@H]32)[C@H](O)CN(CC(C)C)S(=O)(=O)c2ccc(OC)cc2)cc1)Oc1ccccc1 (some centres unmarked) [drawing 658 R1=OPh R2=Lac-Me] | 50 to 500 nM | 
46 | CCCCOC(=O)C(CC)NP(=O)(COc1ccc(CC(NC(=O)OC2COC3OCCC23)C(O)CN(CC(C)C)S(=O)(=O)c2ccc(OC)cc2)cc1)Oc1ccccc1 (single isomer, unassigned) [drawing 657 R1=OPh R2=Aba-Bu] | < 50 nM and 50 to 500 nM | 
47 | COc1ccc(S(=O)(=O)N(CC(C)C)C[C@@H](O)[C@H](Cc2ccc(OCP(=O)(Oc3ccccc3)O[C@@H](C)C(=O)OCCN3CCOCC3)cc2)NC(=O)O[C@H]2CO[C@H]3OCC[C@H]32)cc1 (stereo partly drawn) [drawing 659 R1=OPh R2=(S)Lac-EtMor] | > 5000 nM | 

— patent US20060115815A1 (priority 2002, published 2006)
